Results as given in publication PMC10233710 (ChemMedChem, 2023).
Where two headings read alike, the source gives them in different places.

What was measured:
HCT-116 cells = test: MTT cytotoxicity assay, HCT-116; format: cell-based, human; details: read-out: GI50 ± SD (μM) HCT-116
MCF-7 cells = test: MTT cytotoxicity assay, MCF-7; format: cell-based, human; details: read-out: GI50 ± SD (μM) MCF-7
recombinant human TDP1 = recombinant human TDP1 (Homo sapiens, UniProt Q9NUW8); test: TDP1 gel-based inhibition assay; format: biochemical
recombinant TOP1 = molecular target: T1, recombinant TOP1 (Homo sapiens, UniProt P11387); test: TOP1-mediated DNA cleavage assay; format: biochemical; details: TOP1 cleavage inhibitory activity, semiquantitative relative to CPT at 1 μM
T1 sequence (P11387 1-765): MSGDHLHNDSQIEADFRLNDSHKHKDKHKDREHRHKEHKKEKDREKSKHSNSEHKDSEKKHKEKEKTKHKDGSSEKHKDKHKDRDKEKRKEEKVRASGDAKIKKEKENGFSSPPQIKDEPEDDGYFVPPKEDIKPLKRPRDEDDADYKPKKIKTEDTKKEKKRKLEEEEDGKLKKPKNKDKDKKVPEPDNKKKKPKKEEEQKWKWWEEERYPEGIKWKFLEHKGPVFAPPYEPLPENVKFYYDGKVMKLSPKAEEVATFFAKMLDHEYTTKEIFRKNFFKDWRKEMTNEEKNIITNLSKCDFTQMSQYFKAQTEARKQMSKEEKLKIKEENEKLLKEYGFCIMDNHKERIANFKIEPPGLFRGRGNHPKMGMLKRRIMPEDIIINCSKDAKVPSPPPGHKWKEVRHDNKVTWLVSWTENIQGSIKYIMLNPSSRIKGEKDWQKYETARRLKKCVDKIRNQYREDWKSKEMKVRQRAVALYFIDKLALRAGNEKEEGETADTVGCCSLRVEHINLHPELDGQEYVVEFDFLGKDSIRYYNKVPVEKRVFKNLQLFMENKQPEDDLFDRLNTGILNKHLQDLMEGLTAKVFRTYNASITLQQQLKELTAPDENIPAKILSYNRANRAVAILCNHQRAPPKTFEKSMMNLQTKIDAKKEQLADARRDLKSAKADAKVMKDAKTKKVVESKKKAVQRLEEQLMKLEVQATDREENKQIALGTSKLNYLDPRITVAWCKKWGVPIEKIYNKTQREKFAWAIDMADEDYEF

Sequence of recombinant human TDP1 (Q9NUW8 whole entry): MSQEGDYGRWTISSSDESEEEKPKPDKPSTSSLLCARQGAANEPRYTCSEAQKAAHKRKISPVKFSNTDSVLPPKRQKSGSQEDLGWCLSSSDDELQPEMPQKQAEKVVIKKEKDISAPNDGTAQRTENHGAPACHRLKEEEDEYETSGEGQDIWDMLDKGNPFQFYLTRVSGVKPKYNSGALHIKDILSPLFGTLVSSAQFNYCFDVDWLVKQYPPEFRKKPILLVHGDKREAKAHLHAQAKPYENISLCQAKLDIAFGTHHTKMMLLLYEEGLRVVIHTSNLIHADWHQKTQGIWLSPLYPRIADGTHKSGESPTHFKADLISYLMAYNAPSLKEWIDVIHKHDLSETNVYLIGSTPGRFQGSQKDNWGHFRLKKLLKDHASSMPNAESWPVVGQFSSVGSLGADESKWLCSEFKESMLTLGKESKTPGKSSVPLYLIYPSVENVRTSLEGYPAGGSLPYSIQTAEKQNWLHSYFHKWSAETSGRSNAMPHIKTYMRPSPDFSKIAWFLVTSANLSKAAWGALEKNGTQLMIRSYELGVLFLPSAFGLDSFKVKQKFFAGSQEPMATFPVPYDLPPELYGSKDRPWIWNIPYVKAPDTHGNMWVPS

| SMILES | GI50 (HCT-116 cells; MTT assay, 72 h, Table 1) | GI50 (MCF-7 cells; MTT assay, 72 h, Table 1) | IC50 (recombinant human TDP1; read-out: IC50 (μM) for TDP1, gel-based assay, Table 1) | GI50 (HCT-116 cells; Homo sapiens, HCT-116, 72 h) | TOP1 Inhibition (recombinant TOP1; Table 1) | GI50 (MCF-7 cells; Homo sapiens, MCF7, 72 h) | IC50 (recombinant human TDP1) | TOP1 Inhibition (recombinant TOP1; Table 2) | IC50 (recombinant human TDP1; read-out: IC50 (μM) for TDP1, gel-based assay, Table 2) |
| --- | --- | --- | --- | --- | --- | --- | --- | --- | --- |
| COc1cc2c(=O)n(C)c3c4cc5c(cc4ccc3c2cc1OC)OCO5 [Compound 4, oxynitidine, reference compound] | 75 ± 4.4 µM | > 100 µM | > 111 µM | – | – | – | – | – | – |
| COc1cc2c(=O)n(C)c3c4cc5c(cc4c(OC(C)=O)cc3c2cc1OC)OCO5 [Compound 10, 2,3-Dimethoxy-12-methyl-13-oxo-12,13-dihydro-[1,3]dioxolo[4’,5’:4,5]benzo[1,2-c]phenanthridin-6-yl acetate] | – | – | – | > 100 µM | + (+, between 20% and 50% activity) | > 100 µM | > 111 µM | – | – |
| COc1cc2c(=O)n(C)c3c4cc5c(cc4c(O)cc3c2cc1OC)OCO5 [Compound 11, 6-Hydroxy-2,3-dimethoxy-12-methyl-[1,3]dioxolo[4’,5’:4,5]benzo[1,2-c]phenanthridin-13(12H)-one] | – | – | – | > 100 µM | 0 | > 100 µM | > 111 µM | – | – |
| CNCCOc1cc2c3cc(OC)c(OC)cc3c(=O)n(C)c2c2cc3c(cc12)OCO3 [Compound 12, 2,3-Dimethoxy-12-methyl-6-(2-(methylamino)ethoxy)-[1,3]dioxolo[4’,5’:4,5]benzo[1,2-c]phenanthridin-13(12H)-one] | – | – | – | 1.3 ± 0.12 µM | +++ (+++, between 75% and 95% activity) | 2.2 ± 0.06 µM | > 111 µM | – | – |
| CNCCCOc1cc2c3cc(OC)c(OC)cc3c(=O)n(C)c2c2cc3c(cc12)OCO3 [Compound 13, 2,3-Dimethoxy-12-methyl-6-(3-(methylamino)propoxy)-[1,3]dioxolo[4’,5’:4,5]benzo[1,2-c]phenanthridin-13(12H)-one] | – | – | – | 12 ± 1.2 µM | + (+, between 20% and 50% activity) | 33 ± 5 µM | > 111 µM | – | – |
| COc1cc2c(=O)n(C)c3c4cc5c(cc4c(OCCN(C)C)cc3c2cc1OC)OCO5 [Compound 14, 6-(2-(Dimethylamino)ethoxy)-2,3-dimethoxy-12-methyl-[1,3]dioxolo[4’,5’:4,5]benzo[1,2-c]phenanthridin-13(12H)-one] | – | – | – | 4.6 ± 0.41 µM | + (+, between 20% and 50% activity) | 8.5 ± 0.91 µM | 37 to 111 µM | – | – |
| COc1cc2c(=O)n(C)c3c4cc5c(cc4c(OCCCN(C)C)cc3c2cc1OC)OCO5 [Compound 15, 6-(3-(Dimethylamino)propoxy)-2,3-dimethoxy-12-methyl-[1,3]dioxolo[4’,5’:4,5]benzo[1,2-c]phenanthridin-13(12H)-one] | – | – | – | 36 ± 1.3 µM | + (+, between 20% and 50% activity) | 54 ± 4.9 µM | > 111 µM | – | – |
| COc1cc2c(=O)n(C)c3c4cc5c(cc4c(OCCN4CCCCC4)cc3c2cc1OC)OCO5 [Compound 16, 2,3-Dimethoxy-12-methyl-6-(2-(piperidin-1-yl)ethoxy)-[1,3]dioxolo[4’,5’:4,5]benzo[1,2-c]phenanthridin-13(12H)-one] | – | – | – | > 100 µM | + (+, between 20% and 50% activity) | 22 ± 7.7 µM | > 111 µM | – | – |
| COc1cc2c(=O)n(C)c3c4cc5c(cc4c(OCCCN4CCCCC4)cc3c2cc1OC)OCO5 [Compound 17, 2,3-Dimethoxy-12-methyl-6-(3-(piperidin-1-yl)propoxy)-[1,3]dioxolo[4’,5’:4,5]benzo[1,2-c]phenanthridin-13(12H)-one] | – | – | – | 1.8 ± 0.32 µM | ++ (++, between 50% and 75% activity) | 6.6 ± 1.3 µM | > 111 µM | – | – |
| COc1cc2c(=O)n(C)c3c4cc5c(cc4c(OCCN4CCN(C)CC4)cc3c2cc1OC)OCO5 [Compound 18, 2,3-Dimethoxy-12-methyl-6-(2-(4-methylpiperazin-1-yl)ethoxy)-[1,3]dioxolo[4’,5’:4,5]benzo[1,2-c]phenanthridin-13(12H)-one] | – | – | – | 7.7 ± 0.56 µM | + (+, between 20% and 50% activity) | 7 ± 1.3 µM | 37 to 111 µM | – | – |
| COc1cc2c(=O)n(C)c3c4cc5c(cc4c(OCCCN4CCN(C)CC4)cc3c2cc1OC)OCO5 [Compound 19, 2,3-Dimethoxy-12-methyl-6-(3-(4-methylpiperazin-1-yl)propoxy)-[1,3]dioxolo[4’,5’:4,5]benzo[1,2-c]phenanthridin-13(12H)-one] | – | – | – | 1.5 ± 0.21 µM | ++ (++, between 50% and 75% activity) | 0.93 ± 0.07 µM | > 111 µM | – | – |
| COc1cc2c(=O)n(C)c3c4cc5c(cc4c(OCCn4ccnc4)cc3c2cc1OC)OCO5 [Compound 20, 6-(2-(1H-Imidazol-1-yl)ethoxy)-2,3-dimethoxy-12-methyl-[1,3]dioxolo[4’,5’:4,5]benzo[1,2-c]phenanthridin-13(12H)-one] | – | – | – | 2.9 ± 0.45 µM | ++ (++, between 50% and 75% activity) | 2.7 ± 0.23 µM | > 111 µM | – | – |
| COc1cc2c(=O)n(C)c3c4cc5c(cc4c(OCCCn4ccnc4)cc3c2cc1OC)OCO5 [Compound 21, 6-(3-(1H-Imidazol-1-yl)propoxy)-2,3-dimethoxy-12-methyl-[1,3]dioxolo[4’,5’:4,5]benzo[1,2-c]phenanthridin-13(12H)-one] | – | – | – | 16 ± 3.6 µM | 0 | 64 ± 3.9 µM | > 111 µM | – | – |
| COc1cc2c(=O)n(C)c3c4cc5c(cc4c(OCCNCCN(C)C)cc3c2cc1OC)OCO5 [Compound 22, 6-(2-((2-(Dimethylamino)ethyl)amino)ethoxy)-2,3-dimethoxy-12-methyl-[1,3]dioxolo[4’,5’:4,5]benzo[1,2-c]phenanthridin-13(12H)-one] | – | – | – | 9.1 ± 1 µM | + (+, between 20% and 50% activity) | 9.1 ± 2.4 µM | > 111 µM | – | – |
| CCOC(=O)COc1cc2c3cc(OC)c(OC)cc3c(=O)n(C)c2c2cc3c(cc12)OCO3 [Compound 23, Ethyl 2-((2,3-dimethoxy-12-methyl-13-oxo-12,13-dihydro-[1,3]dioxolo[4’,5’:4,5]benzo[1,2-c]phenanthridin-6-yl)oxy)acetate] | – | – | – | > 100 µM | 0 | 91 ± 5.9 µM | > 111 µM | – | – |
| COc1cc2c(=O)n(C)c3c4cc5c(cc4cc(O)c3c2cc1OC)OCO5 [Compound 33, 5-Hydroxy-2,3-dimethoxy-12-methyl-[1,3]dioxolo[4’,5’:4,5]benzo[1,2-c]phenanthridin-13(12H)-one] | – | – | – | > 100 µM | – | > 100 µM | > 111 µM | + (+, between 20% and 50% activity) | – |
| COc1cc2c(=O)n(C)c3c4cc5c(cc4cc(OCCN(C)C)c3c2cc1OC)OCO5 [Compound 34, 5-(2-(Dimethylamino)ethoxy)-2,3-dimethoxy-12-methyl-[1,3]dioxolo[4’,5’:4,5]benzo[1,2-c]phenanthridin-13(12H)-one] | – | – | – | 11 ± 0.48 µM | – | 27 ± 1.5 µM | 37 to 111 µM | + (+, between 20% and 50% activity) | – |
| CCN(CC)CCOc1cc2cc3c(cc2c2c1c1cc(OC)c(OC)cc1c(=O)n2C)OCO3 [Compound 36, 5-(2-(Diethylamino)ethoxy)-2,3-dimethoxy-12-methyl-[1,3]dioxolo[4’,5’:4,5]benzo[1,2-c]phenanthridin-13(12H)-one] | – | – | – | 2.1 ± 0.23 µM | – | 1.6 ± 0.17 µM | – | 0 | > 111 µM |
| CCN(CC)CCCOc1cc2cc3c(cc2c2c1c1cc(OC)c(OC)cc1c(=O)n2C)OCO3 [Compound 37, 5-(3-(Diethylamino)propoxy)-2,3-dimethoxy-12-methyl-[1,3]dioxolo[4’,5’:4,5]benzo[1,2-c]phenanthridin-13(12H)-one] | – | – | – | 2.4 ± 0.11 µM | – | 2 ± 0.1 µM | 15 ± 2.4 µM | + (+, between 20% and 50% activity) | – |
